From patent publication US3966930A, “Phenothiazine derivatives, compositions thereof and methods of preparation thereof” (Kefalas A/S, priority 1973, dated 1976)
Read-outs that look alike come from different tables or passages of the source.

System: methylphenidate
Test: Methylphenidate antagonism in mice (rapid screening test for neuroleptic drugs)
Format: in vivo, NMRI male mice
Settings: Mus musculus, ip
Method: 40 grams of 4-(2-hydroxyethyl)piperidine were then added, and the mixture heated for 17 hours at 90° Centigrade. The mixture was cooled, poured into water, extracted with 500 milliliters of ether, the ether extract washed five times with water and dried over anhydrous magnesium sulphate. The oxalate of 2-trifluoromethyl-7-fluoro-10-(3'-(4-(2-hydroxyethyl)piperidin-1-yl)propyl)phenothiazine was precipitated from acetone-/ether (1:1) and melts at 76°-80° Centigrade. The pharmacological testing of the compounds of the present invention consisted of a standard and reliable, published test showing the neuroleptic activity of the compounds in that they antagonize central nervous stimulating compounds such as amphetamine and methylphenidate. […] 1971, 29, suppl. 4, 44.
The test may briefly be described as follows:
As animals were used NMRI male mice weighing 18-25 grams. 3 × 2 mice are used for each dose level.
2, 6 or 24 hours after i.p.injection of test substance, methylphenidate, 60 mg/kg, is injected s.c. After administration of methylphenidate the mice are placed in the observation cages, 2 in each cage, where they remain for 2, 6 or 24 hours. The cages are placed on corrugated paper, the corrugations facing upwards. It is examined whether or not the mice have been biting the corrugated paper. […] If one or more of the control pairs have also not been biting the corrugated paper, the test has to be repeated on a new set of mice. The following novel substances of Formula I were tested: […]
As reference substances were used the corresponding known phenothiazines having no fluorine substitution at position 7, namely fluphenazine, perphenazine, thioproperazine, acetophenazine and chlorpromazine respectively.

[1] = 2 h, read-out: Methylphenidate Antagonism ED50, 2h
[2] = 6 h, read-out: Methylphenidate Antagonism ED50, 6h
[3] = 24 h, read-out: Methylphenidate Antagonism ED50, 24h
[4] = 2 h after i.p. injection of test substance, methylphenidate 60 mg/kg s.c., mice, read-out: Methylphenidate Antagonism ED50, 2h
[5] = 6 h after i.p. injection of test substance, methylphenidate 60 mg/kg s.c., mice, read-out: Methylphenidate Antagonism ED50, 6h
[6] = 24 h after i.p. injection of test substance, methylphenidate 60 mg/kg s.c., mice, read-out: Methylphenidate Antagonism ED50, 24h

OCCN1CCN(CCCN2c3ccccc3Sc3ccc(Cl)cc32)CC1 [Perphenazine]
ED50 [1]: 0.08 mg/kg | ED50 [2]: 0.55 mg/kg | ED50 [3]: > 5 mg/kg

CN(C)CCCN1c2ccc(F)cc2Sc2ccc(Cl)cc21 [Lu 10-152, 2-chloro-7-fluoro-10-(3'-dimethylaminopropyl)-phenothiazine]
ED50 [4]: 2 mg/kg | ED50 [5]: 2.1 mg/kg | ED50 [6]: > 20 mg/kg

CN1CCN(CCCN2c3ccccc3Sc3ccc(S(=O)(=O)N(C)C)cc32)CC1 [Thioproperazine]
ED50 [4]: 0.28 mg/kg | ED50 [5]: 1.2 mg/kg | ED50 [6]: > 5 mg/kg

CN1CCN(CCCN2c3ccc(F)cc3Sc3ccc(S(=O)(=O)N(C)C)cc32)CC1 [Lu 11-075, 2-dimethylsulfamoyl-7-fluoro-10-(3'-(4-methyl-piperazin-1-yl)-propyl)phenothiazine]
ED50 [4]: 0.7 mg/kg | ED50 [5]: 0.44 mg/kg | ED50 [6]: > 5 mg/kg

CN(C)CCCN1c2ccccc2Sc2ccc(Cl)cc21 [Chlorpromazine]
ED50 [1]: 3.3 mg/kg | ED50 [2]: > 20 mg/kg | ED50 [3]: > 20 mg/kg

OCCN1CCN(CCCN2c3ccc(F)cc3Sc3ccc(Cl)cc32)CC1 [Lu 10-125, 2-chloro-7-fluoro-10-(3'-(4-(2-hydroxyethyl)-1-piperazinyl)propyl)-phenothiazine]
ED50 [4]: 0.06 mg/kg | ED50 [5]: 0.05 mg/kg | ED50 [6]: > 5 mg/kg

OCCN1CCN(CCCN2c3ccccc3Sc3ccc(C(F)(F)F)cc32)CC1 [Fluphenazine]
ED50 [4]: 0.08 mg/kg | ED50 [5]: 0.03 mg/kg | ED50 [6]: > 2.5 mg/kg

CC(=O)c1ccc2c(c1)N(CCCN1CCN(CCO)CC1)c1ccccc1S2 [Acetophenazine]
ED50 [4]: 0.2 mg/kg | ED50 [5]: 4.4 mg/kg | ED50 [6]: > 10 mg/kg

OCCN1CCN(CCCN2c3ccc(F)cc3Sc3ccc(C(F)(F)F)cc32)CC1 [Lu 10-116, 2-trifluoromethyl-7-fluoro-10-(3'-(4-(2-hydroxyethyl)-piperazine-1-yl)propyl)phenothiazine]
ED50 [4]: 0.11 mg/kg | ED50 [5]: 0.01 mg/kg | ED50 [6]: 0.08 mg/kg

CC(=O)c1ccc2c(c1)N(CCCN1CCN(CCO)CC1)c1ccc(F)cc1S2 [Lu 11-087, 2-acetyl-7-fluoro-10-(3'-(4-(2-hydroxyethyl)-1-piperazinyl)-propyl)phenothiazine]
ED50 [4]: 0.06 mg/kg | ED50 [5]: 0.07 mg/kg | ED50 [6]: > 1.25 mg/kg
